{
  "source": "patent US20130331575A1",
  "about": "“Method for resolution of 4-((1R,3S)-6-chloro-3-phenyl-indan-1-yl)-1,2,2-trimethyl-piperazine and 1-((1R,3S)-6-chloro-3-phenyl-indan-1-yl)-3,3-dimethyl-piperazine” (priority 2011, published 2013)",
  "origin": "cited, not measured here",
  "key": {"[1]": {"biological_target": "D2 (Homo sapiens, UniProt P14416)", "sequence (P14416 whole entry)": "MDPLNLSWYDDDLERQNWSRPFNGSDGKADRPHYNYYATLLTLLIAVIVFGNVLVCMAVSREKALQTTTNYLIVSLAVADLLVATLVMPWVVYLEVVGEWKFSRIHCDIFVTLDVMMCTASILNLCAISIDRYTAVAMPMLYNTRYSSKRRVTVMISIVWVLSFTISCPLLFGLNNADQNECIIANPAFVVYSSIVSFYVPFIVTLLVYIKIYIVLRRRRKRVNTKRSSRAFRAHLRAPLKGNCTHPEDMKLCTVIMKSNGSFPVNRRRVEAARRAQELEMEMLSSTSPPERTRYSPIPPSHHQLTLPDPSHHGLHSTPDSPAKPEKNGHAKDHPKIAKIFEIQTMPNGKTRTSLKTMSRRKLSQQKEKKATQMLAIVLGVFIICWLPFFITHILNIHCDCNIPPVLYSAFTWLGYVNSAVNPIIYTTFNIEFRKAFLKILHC", "settings": "in vitro"}, "[2]": {"biological_target": "5-HT2 (Homo sapiens, UniProt P28223)", "sequence (P28223 whole entry, species assumed)": "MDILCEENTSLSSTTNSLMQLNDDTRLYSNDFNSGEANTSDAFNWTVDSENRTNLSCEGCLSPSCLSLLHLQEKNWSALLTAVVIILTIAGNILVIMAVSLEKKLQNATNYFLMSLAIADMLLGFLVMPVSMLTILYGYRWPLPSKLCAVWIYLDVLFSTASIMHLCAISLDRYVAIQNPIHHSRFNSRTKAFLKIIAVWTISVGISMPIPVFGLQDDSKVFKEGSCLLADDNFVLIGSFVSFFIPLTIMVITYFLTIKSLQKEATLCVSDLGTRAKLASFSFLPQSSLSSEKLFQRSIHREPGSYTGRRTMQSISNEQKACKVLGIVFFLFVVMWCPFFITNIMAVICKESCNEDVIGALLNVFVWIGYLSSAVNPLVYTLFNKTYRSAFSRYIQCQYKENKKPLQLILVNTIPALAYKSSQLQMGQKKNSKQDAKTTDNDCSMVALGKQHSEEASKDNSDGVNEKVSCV"}, "[3]": {"system": "D1 and D2", "settings": "in vivo"}, "[4]": {"biological_target": "D1 (Homo sapiens, UniProt P21728)", "sequence (P21728 whole entry)": "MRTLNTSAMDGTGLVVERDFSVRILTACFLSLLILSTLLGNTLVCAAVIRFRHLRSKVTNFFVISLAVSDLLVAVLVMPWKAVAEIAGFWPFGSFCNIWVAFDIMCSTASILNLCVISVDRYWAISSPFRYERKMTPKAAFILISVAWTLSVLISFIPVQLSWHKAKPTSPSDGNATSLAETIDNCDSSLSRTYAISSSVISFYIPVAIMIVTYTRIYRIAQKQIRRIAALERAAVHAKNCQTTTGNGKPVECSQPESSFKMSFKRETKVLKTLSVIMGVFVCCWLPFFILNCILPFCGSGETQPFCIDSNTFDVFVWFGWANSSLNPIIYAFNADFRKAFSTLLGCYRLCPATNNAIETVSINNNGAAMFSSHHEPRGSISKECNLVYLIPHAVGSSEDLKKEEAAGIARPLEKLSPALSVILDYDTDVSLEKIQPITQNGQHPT", "settings": "in vitro"}, "[5]": {"system": "α1 adrenoceptors"}},
  "data": [
    {"smiles": "CN1CCN([C@@H]2C[C@@H](c3ccccc3)c3ccc(Cl)cc32)CC1(C)C", "note": "[Compound (I), 4-((1R,3S)-6-chloro-3-phenyl-indan-1-yl)-1,2,2-trimethyl-piperazine]", "values": [
      {"measurement": "D2 antagonist potency", "setting": "[1]", "result": "potent"},
      {"measurement": "5-HT2 antagonist potency", "setting": "[2]", "result": "potent 5-HT2 antagonist"},
      {"measurement": "relative potency as D1 and D2 antagonist", "setting": "[3]", "result": "equipotent as D1 and D2 antagonist"},
      {"measurement": "D1 antagonist potency", "setting": "[4]", "result": "potent"},
      {"measurement": "D1 versus D2 selectivity", "setting": "[4]", "result": "some D1 selectivity"},
      {"measurement": "affinity for α1 adrenoceptors", "setting": "[5]", "result": "high affinity"}
    ]}
  ]
}
